These results are taken from patent US20260335294A1, “TREATING CONGENITAL DISORDERS OF GLYCOSYLATION” (Mayo Foundation for Medical Education and Research, priority 2022, published 2026).

Experiment [1] concerns PMM. As to conditions: patient fibroblasts; cited from earlier work.
The test system of experiment [2] is PMM2-CDG patients. The experiment in a line: Anti-thrombin III (ATIII) in patients on epalrestat. It counts as in vivo, human. As to conditions: for AT III: C: 0.80-1.30. From the text: The primary objective of the study was to assess the efficacy and safety of epalrestat treatment in 3 PMM2-CDG pediatric subjects prior to a planned Phase III clinical trial (Oral epalrestat therapy in Pediatric Subjects with PMM2-CDG, NCT04925960). The secondary objective was to assess the ability of epalrestat to improve clinically relevant aspects of PMM2-CDG such as increased urine polyols (sorbitol, mannitol), abnormal glycosylation (carbohydrate deficient transferrin), abnormal coagulation (ATIII=antithrombin III), impaired liver function (ALT=Alanine Transaminase, AST=Aspartate Transaminase), neurologic function (Brief Ataxia Rating Scale=BARS), severity of phenotype (Nijmegen Pediatric CDG Rating Scale=NPCRS). The ability of epalrestat to inhibit polyol production was monitored by evaluating urine polyol levels (sorbitol, mannitol), which are elevated in PMM2-CDG. Next, carbohydrate deficient transferrin, which is abnormal in PMM2-CDG, was evaluated in order to assess improvement of glycosylation following epalrestat treatment. CDT mono-oligo/dioligo ratio and a-oligo/dioligo ratio are used to evaluate glycosylation abnormalities. Transferrin normally occurs with two glycan chains (di-oligo). In the case of glycosylation abnormalities, glycan chains are missing (A-oligo transferrin has no glycan chains, mono-oligo has one glycan chain, di-oligo has two glycan chains). The higher ratio of a-oligo/di-oligo and mono-oligo/di-oligo indicate glycosylation abnormalities are present. Therefore, improvement in a-oligo/di-oligo and mono-oligo/di-oligo ratios can be used to monitor improvement or worsening of glycosylation status. Changes in the liver enzymes AST, ALT, which are frequently elevated in PMM2-CDG, were monitored both as part of a safety study and as part of monitoring clinical improvement in coagulation. Neurologic improvement was assessed by modified BARS scores in 2 patients (3rd patient was not eligible for the test due to age at the start of the trial). NPCRS was assessed at every visit to assess changes in the severity of the patients' phenotype. Additionally, the frequency of adverse events, changes in vital signs, complete blood count, and changes in BMI were monitored.
(§1) Two patients were started on epalrestat on single patient investigational new drug (IND) (P5 IRB: 19-010017; IND #145262; P6 Protocol PMM2-CDG-001/A). Epalrestat was initiated on the parents' own initiative in the third patient (P7). Two patients were in their second year of epalrestat treatment, while the third, was in the 3rd year of treatment. Physical, neurological, and biochemical examinations were performed in 3 PMM2-CDG patients at baseline, and at every three months after the start of the epalrestat treatment. Patients underwent NPCRS phenotype severity assessment and biological sampling at every visit. Epalrestat (Ono Pharmaceuticals, Osaka, Japan) was taken orally 3 times per day (TID) before meals in a divided dose, with dosage escalation throughout the treatment. The pharmacological profile of epalrestat was as described elsewhere (Ligezka et al, Ann. Neurol., 90(6):887-900 (2021)). The starting dosage in P5 and P6 was 0.8 mg/kg/day, while P7 was started on 0.5 mg/kg/day due to their young age. P7 dosage was increased to 0.8 mg/day after a month, once safety was established. Blood and urine samples were collected routinely. […]

Experiment [3] relates to PMM2-CDG fibroblasts. As to conditions: cited from earlier work.
Experiment [4] relates to PMM2-CDG patients. The experiment is described as follows: Clinical observation of lower body strength and speech. It counts as in vivo, human. As to conditions: P7. The method, then:
as §1, with “[…] Quantification of goal attainment levels is done on a 5-point scale ranging from −2 to +2, with 0 indicating the expected level of goal attainment. Three individual goals were established by each patient (parent) at baseline” for “Blood”, “the progress was annually assessed.” for “urine samples were collected routinely.”

Structures are written as SMILES.

As for `CC(/C=C1\SC(=S)N(CC(=O)O)C1=O)=C\c1ccccc1` [epalrestat], the PMM enzymatic activity result in experiment [1] is reported as “increase”. The “AT III” value stood at 0.99 IU/mL in experiment [2] (P5, 12 months, 1.5 mg/kg day, baseline 0.88); 0.97 IU/mL in experiment [2] (P5, 24 months, 2 mg/kg day, baseline 0.88); 0.39 IU/mL in experiment [2] (P6, 18 months, 3 mg/kg day, baseline 0.25); 0.37 IU/mL in experiment [2] (P7, 12 months, 1.5 mg/kg day, baseline 0.21). For the same compound, the “coagulation parameters (ATIII)” value in experiment [2] (P5-P7, words) is “improvement”. Further, in experiment [3] (PMM2-CDG fibroblasts), the “overall glycosylation as assessed by glycoproteomics” value is on record as “overall glycosylation improvement”. Besides, the glycosylation in vitro result in experiment [3] (PMM2-CDG, Ligezka et al 2021) is given as “improved glycosylation”. In experiment [4], the “lower body strength and speech” value is “improvement in lower body strength and speech”.
